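96-well plates; 48 h exposure; 5 concentrations. Endpoints by linear interpolation between flanking doses. Not reached: highest tested concentration assigned. At the GI50, growth is halved.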 Active and inactive are the calls of the source. Rule as the data show it: active = GI50 up to about 1.1 µM and inactive = higher.
Key:
Assay in all cases: DTP human tumour cell line panel, 48 h
COLO 205 = test system: COLO 205
HOP-62 = test system: HOP-62
Hs-578T = test system: Hs-578T
NCI-H226 = test system: NCI-H226
786-0 = test system: 786-0
A549 = test system: A549
ACHN = test system: ACHN
CAKI-1 = test system: CAKI-1
CCRF-CEM = test system: CCRF-CEM
DU-145 = test system: DU-145
EKVX = test system: EKVX
HCC 2998 = test system: HCC 2998
HCT-116 = test system: HCT-116
HCT-15 = test system: HCT-15
IGROV-1 = test system: IGROV-1
KM12 = test system: KM12
LOX IMVI = test system: LOX IMVI
M14 = test system: M14
MCF7 = test system: MCF7
MDA-MB-435 = test system: MDA-MB-435
MDA-N = test system: MDA-N
NCI-H23 = test system: NCI-H23
NCI-H460 = test system: NCI-H460
NCI-H522 = test system: NCI-H522
NCI/ADR-RES = test system: NCI/ADR-RES
OVCAR-3 = test system: OVCAR-3
OVCAR-5 = test system: OVCAR-5
OVCAR-8 = test system: OVCAR-8
PC-3 = test system: PC-3
RPMI-8226 = test system: RPMI-8226
SF-268 = test system: SF-268
SF-295 = test system: SF-295
SF-539 = test system: SF-539
SK-MEL-28 = test system: SK-MEL-28
SK-MEL-2 = test system: SK-MEL-2
SK-MEL-5 = test system: SK-MEL-5
SN12C = test system: SN12C
SNB-19 = test system: SNB-19
SR = test system: SR
SW-620 = test system: SW-620
T47D = test system: T47D
TK-10 = test system: TK-10
UACC-257 = test system: UACC-257
UACC-62 = test system: UACC-62
UO-31 = test system: UO-31
A498 = test system: A498
HL-60 = test system: HL-60
HOP-92 = test system: HOP-92
HT-29 = test system: HT-29
K562 = test system: K562
MOLT-4 = test system: MOLT-4
Malme-3M = test system: Malme-3M
OVCAR-4 = test system: OVCAR-4
RXF 393 = test system: RXF 393
SK-OV-3 = test system: SK-OV-3
SNB-75 = test system: SNB-75
U-251 = test system: U-251

Question: With `O=C1C=CC2C3C(=O)N(c4ccccc4)C(=O)C3C1N2Cc1ccccc1` (stereo not drawn) as the molecule, how does the GI50 (COLO 205) read?
Answer: Its GI50 is 3.1 µM (inactive).

Question: What about the GI50 (HOP-62) of the same molecule?
Answer: Its GI50 is 3.72 µM (inactive).

Question: What about the GI50 (Hs-578T) of the same molecule?
Answer: The GI50 was 3.51 µM (inactive).

Question: What about the GI50 (NCI-H226) of the same molecule?
Answer: Its GI50 is 8.07 µM (inactive).

Question: What does the source list for `NC(CC(=O)OCc1ccccc1)C(=O)OCc1ccccc1` (stereo not drawn)?
Answer: GI50 (786-0): > 100 µM (inactive); GI50 (A549): > 100 µM (inactive); GI50 (ACHN): > 100 µM (inactive); GI50 (CAKI-1): 63.1 µM (inactive); GI50 (CCRF-CEM): > 100 µM (inactive); GI50 (COLO 205): > 100 µM (inactive); GI50 (DU-145): > 100 µM (inactive); GI50 (EKVX): > 100 µM (inactive); GI50 (HCC 2998): 33.2 µM (inactive); GI50 (HCT-116): > 100 µM (inactive); GI50 (HCT-15): > 100 µM; GI50 (HOP-62): > 100 µM (inactive); GI50 (Hs-578T): 60.4 µM (inactive); GI50 (IGROV-1): > 100 µM (inactive); GI50 (KM12): > 100 µM (inactive); GI50 (LOX IMVI): > 100 µM (inactive); GI50 (M14): > 100 µM (inactive); GI50 (MCF7): > 100 µM (inactive); GI50 (MDA-MB-435): > 100 µM (inactive); GI50 (MDA-N): > 100 µM (inactive); GI50 (NCI-H23): > 100 µM (inactive); GI50 (NCI-H460): > 100 µM (inactive); GI50 (NCI-H522): > 100 µM (inactive); GI50 (NCI/ADR-RES): > 100 µM (inactive); GI50 (OVCAR-3): > 100 µM (inactive); GI50 (OVCAR-5): > 100 µM (inactive); GI50 (OVCAR-8): > 100 µM (inactive); GI50 (PC-3): > 100 µM (inactive); GI50 (RPMI-8226): > 100 µM (inactive); GI50 (SF-268): > 100 µM (inactive); GI50 (SF-295): > 100 µM (inactive); GI50 (SF-539): > 100 µM (inactive); GI50 (SK-MEL-28): > 100 µM (inactive); GI50 (SK-MEL-2): > 100 µM (inactive); GI50 (SK-MEL-5): > 100 µM (inactive); GI50 (SN12C): > 100 µM (inactive); GI50 (SNB-19): > 100 µM (inactive); GI50 (SR): > 100 µM (inactive); GI50 (SW-620): > 100 µM (inactive); GI50 (T47D): > 100 µM (inactive); GI50 (TK-10): > 100 µM (inactive); GI50 (UACC-257): > 100 µM (inactive); GI50 (UACC-62): > 100 µM (inactive); GI50 (UO-31): 69.5 µM (inactive)

Question: What does the source list for `COc1ccc(NC(=S)NN=C(C)c2cccc(C(C)=NNC(=S)Nc3ccc(OC)cc3)n2)cc1`?
Answer: GI50 (786-0): 14.7 µM (inactive); GI50 (A498): > 100 µM (inactive); GI50 (A549): 23.7 µM (inactive); GI50 (ACHN): 4.74 µM (inactive); GI50 (CAKI-1): 11.4 µM (inactive); GI50 (CCRF-CEM): 3.33 µM (inactive); GI50 (COLO 205): 4.45 µM (inactive); GI50 (DU-145): > 100 µM (inactive); GI50 (EKVX): > 100 µM (inactive); GI50 (HCC 2998): 37.7 µM (inactive); GI50 (HCT-116): 11.6 µM (inactive); GI50 (HCT-15): 10.9 µM; GI50 (HL-60): 20.5 µM (inactive); GI50 (HOP-62): 26.1 µM (inactive); GI50 (HOP-92): 45.6 µM (inactive); GI50 (HT-29): 28.2 µM (inactive); GI50 (Hs-578T): > 100 µM (inactive); GI50 (IGROV-1): 0.857 µM (active); GI50 (K562): 31.3 µM (inactive); GI50 (KM12): 6.44 µM (inactive); GI50 (LOX IMVI): 13.6 µM (inactive); GI50 (M14): 11.2 µM (inactive); GI50 (MDA-MB-435): 85.5 µM (inactive); GI50 (MOLT-4): 8.55 µM (inactive); GI50 (Malme-3M): 13.4 µM (inactive); GI50 (NCI-H226): 47.9 µM (inactive); GI50 (NCI-H23): 64 µM (inactive); GI50 (NCI-H460): 12.4 µM (inactive); GI50 (NCI-H522): 33.8 µM (inactive); GI50 (NCI/ADR-RES): 8.59 µM (inactive); GI50 (OVCAR-3): 13.9 µM (inactive); GI50 (OVCAR-4): 7.13 µM (inactive); GI50 (OVCAR-5): > 100 µM (inactive); GI50 (OVCAR-8): 9.51 µM (inactive); GI50 (PC-3): 27.2 µM (inactive); GI50 (RPMI-8226): > 100 µM (inactive); GI50 (RXF 393): > 100 µM (inactive); GI50 (SF-268): > 100 µM (inactive); GI50 (SF-295): 11.2 µM (inactive); GI50 (SF-539): 16.4 µM (inactive); GI50 (SK-MEL-28): > 100 µM (inactive); GI50 (SK-MEL-2): > 100 µM (inactive); GI50 (SK-MEL-5): 0.995 µM (active); GI50 (SK-OV-3): 21.4 µM (inactive); GI50 (SN12C): > 100 µM (inactive); GI50 (SNB-19): > 100 µM (inactive); GI50 (SNB-75): 3.9 µM (inactive); GI50 (SR): 3.13 µM (inactive); GI50 (SW-620): 64.7 µM (inactive); GI50 (T47D): > 100 µM (inactive); GI50 (TK-10): 58.2 µM (inactive); GI50 (U-251): 24.5 µM (inactive); GI50 (UACC-257): > 100 µM (inactive); GI50 (UACC-62): > 100 µM (inactive); GI50 (UO-31): 6.65 µM (inactive)
